Where two headings read alike, the source gives them in different places.
Experiments:
MOLM-13 cells = assay: Proliferation assay, MOLM-13 (CellTiter-Glo, 7 days); type: cell-based, human
Protocol: (§1) The anti-proliferative effect of compounds was tested in human leukaemia cell lines. The cell lines […] and MV4; 11 each harbor an MLL translocation expressing the MLL fusion proteins MLL-AF9 and MLL-AF4, respectively. Each also express the wildtype protein from the second allele. OCI-AML3 cells carrying the NPM1c gene mutation were also tested.
(§2) MOLM-13 and HEL cells were cultured in RPMI 1640 (Gibco) supplemented with 10% FBS (Gibco) and 1% Pen/Strep (Gibco). MV4; 11 cells were cultured in IMDM (Gibco) supplemented with 10% FBS (Gibco) and 1% Pen/Strep (Gibco). OCI-AML3 cells were cultured in MEMa (Gibco) supplemented with 20% FBS (Gibco) and 1% Pen/Strep (Gibco).
(§3) To assess proliferative effects, 125 MOLM-13 cells, 300 MV4; 11 cells, 75 OCI-AML3 cells, and 200 HEL cells were seeded in 40 μL media per well in 384-well ViewPlates (Perkin Elmer, 6007480). Cell seeding numbers were chosen based on growth curves to ensure linear growth throughout the experiments. Test compounds were added at 3.16-fold serial dilutions in DMSO from […] and DMSO content was normalized to 0.1%. Cells were incubated for 7 days at 37° C. and 5% CO2. A day 0 plate was seeded for each cell line and used as a standard control.
(§4) To measure cell viability, CellTiter-Glo 2.0 (Promega, G9242) luminescent growth indicator was used. 10 μL CellTiter-Glo reagent was added per well. Plates were placed on a plate shaker for 2 minutes in the dark and left to incubate off the shaker for another 8 minutes in the dark, for a total of 10 minutes. Plates were read using an EnVision plate reader (Perkin Elmer) using the Luminescence aperture and a measurement time of 0.1 second.
(§5) Data were analyzed in Genedata Screener®. IC50 values were determined by plotting % inhibition versus log compound concentration and using a one site dose response model. Raw data signals were normalized using 0.1% DMSO media only as background control, 0.1% DMSO with cells no compound as 100% viability (maximum signal), and day 0 0.1% DM with cells no compound as 0% viability (minimum signal).

[1] = Human liver microsomes (HLMs) intrinsic clearance assay; type: in vitro ADME; conditions: human, microsomes; for HLM CLint: 1 µM, pH 7.4
Protocol: Human liver microsomes (HLMs) were obtained from Corning (UltraPool 150 donors) at a concentration of 20 mg/mL protein. HLMs were stored at −80° C. until use and prior to use, thawed in a 37° C. water bath and then stored on wet ice. DMSO and NADPH were sourced from Solarbio S&T Co Ltd.
2 mL of 10 mM DMSO stock solutions of test compound were added to 198 mL acetonitrile to produce […] concentration. 1325 mL of 20 mg/mL HLM were added to 22260 mL of phosphate buffer to produce the HLM mixture. An 8.334 mg/mL solution of NADPH was prepared in 100 mmol/L pH 7.4 phosphate buffer.
222.5 mL of the HLM mixture and 25 mL of the 10 mM NADPH were added into the incubation plates (1 mL 96 well deep well plate from Thermo). The mixture was vortexed for 10 seconds at 1000 rpm. The incubation plate was pre-warmed in a water bath at 37° C. for 8 minutes. 2.5 mL of the […] stocks of test compound was added to initiate the reaction. The mix was vortexed for 12 seconds at 1000 rpm and incubated at 37° C. The incubation mixture (250 mL) contained 1 mg/mL HLM, 1 mmol/L NADPH and […].
The reaction was quenched by transferring 20 mL of the incubation mixture at 0.5, 5, 10, 15, 20 and 30 minutes into the quenching plate containing 100 mL of cold stop solution (acetonitrile containing internal standards). The plate was vortexed at 800 rpm for 2 minutes.
The quenching plates were centrifuged for 20 minutes at 4000 rpm and 4° C. 40 mL of the supernatant was transferred into a 96-well analysis plate containing 160 mL of water. The analysis plate was shaken at 1000 rpm for 2 minutes and the samples analysed by LC-MS/MS.
Peak areas were determined from extracted ion chromatograms. Percent parent remaining was calculated from peak area of test compound. The slope value, k, was determined by linear regression of the natural logarithm of percent parent remaining versus incubation time. The in vitro half-life (t1/2) was determined from the slope value by the equation: […]
Conversion of the in vitro half-life (min) into in vitro CLint (mL/min/mg proteins) was completed using the equation: […]

OCI-AML3 cells = assay: Proliferation assay, OCI-AML3 (CellTiter-Glo, 7 days); type: cell-based, human; conditions: Homo sapiens, OCI-AML-3, 168 h
Protocol: as §1, §2, §3, §4, §5

HEL cells = assay: Proliferation assay, HEL control cell line (CellTiter-Glo, 7 days); type: cell-based, human; conditions: Homo sapiens, HEL, 168 h
Protocol: as §1, §2, §3, §4, §5

MV4;11 cells = assay: Proliferation assay, MV4;11 (CellTiter-Glo, 7 days); type: cell-based, human; conditions: Homo sapiens, MV4-11, 168 h, read-out: MV-4-11 IC50
Protocol: as §1, §2, §3, §4, §5

hERG = hERG (Homo sapiens (Human), UniProt Q12809); assay: hERG assay 1 (standard), SyncroPatch 384PE; type: cell-based; conditions: CHO cells, room temperature, up to 40 uM
Protocol: Experiments were performed on the SyncroPatch 384PE (Nanion Technologies) high throughput patch clamp platform at room temperature and used medium resistance chips with 4 patch holes per site. hERG-expressing Chinese hamster ovary K1 (CHO) cell line was used in assay-ready format and kept in liquid nitrogen until use. 2 vials of cells (10×10^6 cells per vial) were thawed and added to 20 ml Hepes-buffered saline solution (HBSS). HBSS comprised 140 mM NaCl, 4 mM KCl, 10 mM HEPES and 5 mM Glucose (pH 7.4). The internal patch clamp solution was KF 120 mM, KCl 20 mM, HEPES 10 mM, EGTA 10 mM, and 25 μM Escin (pH 7.2). After the initial sealing process was complete, a seal enhancer solution comprising HBSS supplemented with 10 mM CaCl2 and 1 mM MgCl2 was applied to cells. The external solution was then exchanged (4 times) for external patch clamp solution comprising NaCl 80 mM, KCl 4 mM, HEPES 10 mM, CaCl2 2 mM, MgCl2 1 mM, glucose 5 mM, and NMDG 60 mM (pH7.4). All compounds were dispensed from initial 10 mM DMSO stocks. An industry standard +60/−40 mV voltage protocol was applied every 15 seconds. Compounds were tested in a 6-point cumulative assay (final DMSO concentration 0.33%), with a concentration range of 139 nM to 40 uM. Data were analyzed in Genedata Screener®. IC50 values were determined by plotting % inhibition versus log compound concentration and using a one site dose response model. Only wells that passed acceptance criteria for this platform were used in this analysis (30 MegaOhm seal resistance, Z prime >0.4 and current size >0.2 nA).

muscarinic M2 receptor = muscarinic M2 receptor (Homo sapiens (Human), UniProt P08172); assay: Muscarinic M2 receptor binding assay (assay 1); conditions: [3H]AF-DX 384 2 nM, Cheng Prusoff
Protocol: Cell membrane homogenates (60 μg protein) were incubated for 60 minutes at 22° C. with 2 nM [3H]AF-DX 384 in the absence or presence of the test compound in a buffer containing 50 mM Tris-HCl (pH 7.4), 120 mM NaCl, 5 mM KCl, 5 mM MgCl2, and 1 mM EDTA. Nonspecific binding was determined in the presence of 1 μM atropine. Following incubation, the samples were filtered rapidly under vacuum through glass fiber filters (GF/B, Packard) presoaked with 0.3% PEI and rinsed several times with ice-cold 50 mM Tris-HCl using a 96-sample cell harvester (Unifilter, Packard). The filters were dried then counted for radioactivity in a scintillation counter (Topcount, Packard) using a scintillation cocktail (Microscint 0, Packard). The results were expressed as a percent inhibition of the control radioligand specific binding, from which the Ki was calculated. Data were analyzed using software developed at Cerep (Hill software) and validated by comparison with data generated by the commercial software SigmaPlot®4.0 for Windows® (© 1997 by SPSS Inc.). The inhibition constant, Ki, was calculated using the Cheng Prusoff equation:
where L=concentration of ligand in the assay, and Kd=affinity of the ligand for the receptor. The standard reference compound was methoctramine, which was tested in each experiment at several concentrations to obtain a competition curve from which its IC50 was calculated.

Sequence of hERG (Q12809 whole entry): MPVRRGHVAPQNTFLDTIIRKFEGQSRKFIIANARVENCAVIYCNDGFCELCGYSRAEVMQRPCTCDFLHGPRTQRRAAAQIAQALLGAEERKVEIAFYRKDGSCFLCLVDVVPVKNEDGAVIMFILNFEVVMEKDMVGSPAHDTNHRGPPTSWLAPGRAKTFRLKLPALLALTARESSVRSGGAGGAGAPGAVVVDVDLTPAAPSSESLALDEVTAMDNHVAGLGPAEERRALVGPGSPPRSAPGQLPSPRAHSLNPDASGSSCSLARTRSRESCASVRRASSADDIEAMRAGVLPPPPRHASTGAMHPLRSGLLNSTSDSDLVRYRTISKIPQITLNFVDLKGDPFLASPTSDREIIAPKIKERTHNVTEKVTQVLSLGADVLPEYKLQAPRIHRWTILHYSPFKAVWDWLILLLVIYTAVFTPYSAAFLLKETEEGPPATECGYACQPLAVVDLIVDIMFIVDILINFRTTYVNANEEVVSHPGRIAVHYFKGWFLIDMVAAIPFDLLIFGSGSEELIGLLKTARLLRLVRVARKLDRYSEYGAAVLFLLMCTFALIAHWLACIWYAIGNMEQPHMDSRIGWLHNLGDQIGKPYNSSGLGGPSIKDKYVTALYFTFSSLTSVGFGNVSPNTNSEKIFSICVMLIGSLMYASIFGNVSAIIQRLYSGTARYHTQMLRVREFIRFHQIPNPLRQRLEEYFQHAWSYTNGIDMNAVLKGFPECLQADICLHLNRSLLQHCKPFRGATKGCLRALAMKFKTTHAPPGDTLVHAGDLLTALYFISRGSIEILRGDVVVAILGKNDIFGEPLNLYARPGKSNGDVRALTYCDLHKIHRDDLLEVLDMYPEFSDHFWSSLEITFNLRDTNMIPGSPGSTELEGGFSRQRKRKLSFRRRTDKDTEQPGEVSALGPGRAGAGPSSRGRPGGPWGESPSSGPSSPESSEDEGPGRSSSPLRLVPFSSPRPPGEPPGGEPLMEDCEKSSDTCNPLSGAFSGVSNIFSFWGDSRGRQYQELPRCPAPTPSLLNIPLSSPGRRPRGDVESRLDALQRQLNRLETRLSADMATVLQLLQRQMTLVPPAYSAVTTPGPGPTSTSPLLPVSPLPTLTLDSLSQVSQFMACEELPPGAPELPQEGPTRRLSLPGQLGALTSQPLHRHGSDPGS
Sequence of muscarinic M2 receptor (P08172 whole entry): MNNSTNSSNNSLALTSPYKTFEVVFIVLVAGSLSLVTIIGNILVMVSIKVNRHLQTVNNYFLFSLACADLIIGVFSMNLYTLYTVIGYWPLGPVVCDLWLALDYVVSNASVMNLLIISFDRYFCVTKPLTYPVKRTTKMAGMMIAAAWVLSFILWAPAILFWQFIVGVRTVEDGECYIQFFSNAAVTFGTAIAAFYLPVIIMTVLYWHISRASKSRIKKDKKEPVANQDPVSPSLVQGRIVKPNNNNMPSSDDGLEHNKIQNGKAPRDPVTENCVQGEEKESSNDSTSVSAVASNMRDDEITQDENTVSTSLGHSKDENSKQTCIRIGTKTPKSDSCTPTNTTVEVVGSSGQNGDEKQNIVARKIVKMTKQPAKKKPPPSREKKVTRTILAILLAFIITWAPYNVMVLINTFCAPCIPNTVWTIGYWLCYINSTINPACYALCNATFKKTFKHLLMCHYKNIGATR

Structure (SMILES) | IC50 (MOLM-13 cells; Homo sapiens, MOLM-13, 168 h) [nM] | microsomal CLint at 1 µM ([1]; pH 7.4, HLM CLint) [µL/min/mg] | IC50 (OCI-AML3 cells) [nM] | IC50 (MV4;11 cells) [nM] | IC50 (MOLM-13 cells) [nM] | Ki (muscarinic M2 receptor) [nM] | HLM CLint [1] [µL/min/mg] | IC50 (HEL cells) [nM] | IC50 (hERG) [nM] | microsomal CLint at 1 µM ([1]; pH 7.4, 1 mg/mL HLM, NADPH, read-out: HLM CLint) [µL/min/mg]
C[C@@H]1COC[C@H](C)N1C(=O)c1cc(F)ccc1-n1cc(C(=O)C2CCN(C(=O)[C@H]3N[C@@H]4CC[C@H]3C4)CC2)c2ccncc21 [Example 35, (1-((1R,3S,4S)-2-Azabicyclo[2.2.1]heptane-3-carbonyl)piperidin-4-yl)(1-(2-((3R,5S)-3,5-dimethylmorpholine-4-carbonyl)-4-fluorophenyl)-1H-pyrrolo[2,3-c]pyridin-3-yl)methanone] | 297 | 5 | 412 | 146 |  |  |  | > 10000 |  | 
Cc1c(C(=O)C2CCN(C(=O)[C@@H]3CC[C@@H](C)N3)CC2)c2ccncc2n1-c1ccc(F)cc1C(=O)N(C(C)C)C(C)C [Example 61, 5-Fluoro-N,N-diisopropyl-2-(2-methyl-3-(1-((2S,5R)-5-methylpyrrolidine-2-carbonyl)piperidine-4-carbonyl)-1H-pyrrolo[2,3-c]pyridin-1-yl)benzamide] | 92 | 83 |  | 114 |  |  |  | > 10000 | > 40000 | 
Cc1c(C(=O)C2CCN(C(=O)[C@@H]3CC[C@H](C)N3)CC2)c2ccncc2n1-c1ccc(F)cc1C(=O)N(C(C)C)C(C)C [Example 60, 5-Fluoro-N,N-diisopropyl-2-(2-methyl-3-(1-((2S,5S)-5-methylpyrrolidine-2-carbonyl)piperidine-4-carbonyl)-1H-pyrrolo[2,3-c]pyridin-1-yl)benzamide] | 71 | 106 |  | 88 |  |  |  | > 10000 | > 40000 | 
Cc1c(C(=O)C2CCN(C(=O)[C@@H]3CCC4(CC4)N3)CC2)c2ccncc2n1-c1ccc(F)cc1C(=O)N1[C@H](C)COC[C@H]1C (single isomer, unassigned) [Example 58-1] |  |  |  |  | > 10000 |  |  | > 10000 |  | 128
CC(C)c1ccccc1-c1cc(F)ccc1-n1cc(C(=O)C2CCN(C(=O)[C@H]3N[C@@H]4CC[C@H]3C4)CC2)c2ccncc21 [Example 39, (1-((1R,3S,4S)-2-Azabicyclo[2.2.1]heptane-3-carbonyl)piperidin-4-yl)(1-(5-fluoro-2′-isopropyl-[1,1′-biphenyl]-2-yl)-1H-pyrrolo[2,3-c]pyridin-3-yl)methanone] | 65 | 259 | 47 | 31 |  |  |  | 6900 |  | 
CCN(C(=O)c1cc(F)ccc1-n1cc(C(=O)C2CCN(C(=O)[C@H]3NC4CCC3CC4)CC2)c2ccncc21)C(C)C [Example 29, (S)-2-(3-(1-(2-Azabicyclo[2.2.2]octane-3-carbonyl)piperidine-4-carbonyl)-1H-pyrrolo[2,3-c]pyridin-1-yl)-N-ethyl-5-fluoro-N-isopropylbenzamide] | 58 | 26 |  | 57 |  | 200 |  | > 10000 | > 40000 | 
CC(C)N(C(=O)c1cc(F)ccc1-n1cc(C(=O)[C@@H]2CCCN(C(=O)[C@H]3N[C@@H]4CC[C@H]3C4)CC2)c2ccncc21)C(C)C (relative stereo) [Example 45, 2-(3-((R*)-1-((1R,3S,4S)-2-Azabicyclo[2.2.1]heptane-3-carbonyl)azepane-4-carbonyl)-1H-pyrrolo[2,3-c]pyridin-1-yl)-5-fluoro-N,N-diisopropylbenzamide 1·formic acid] | 109 | 139 |  |  |  |  |  | > 10000 |  | 

Second part, led by results:

IC50 (MOLM-13 cells; Homo sapiens, MOLM-13, 168 h) [nM] | microsomal CLint at 1 µM ([1]; pH 7.4, HLM CLint) [µL/min/mg] | IC50 (OCI-AML3 cells) [nM] | IC50 (MV4;11 cells) [nM] | IC50 (MOLM-13 cells) [nM] | Ki (muscarinic M2 receptor) [nM] | HLM CLint [1] [µL/min/mg] | Structure (SMILES) | IC50 (HEL cells) [nM] | IC50 (hERG) [nM] | microsomal CLint at 1 µM ([1]; pH 7.4, 1 mg/mL HLM, NADPH, read-out: HLM CLint) [µL/min/mg]
 |  |  |  | 2070 |  | 183 | CCN(C(=O)c1cc(F)ccc1-n1c(C)c(C(=O)C2CCN(C(=O)[C@@H]3CCC(C)(C)N3)CC2)c2ccncc21)C(C)C (single isomer, unassigned) [Example 50-1] | > 10000 |  | 
 |  |  |  | 3270 |  | 116 | Cc1c(C(=O)[C@@H]2CCN(C(=O)[C@H]3NC[C@@H]4C[C@@H]43)[C@@H](C)C2)c2ccncc2n1-c1ccc(F)cc1C(=O)N(CC(F)(F)F)C(C)C (single isomer, unassigned) [Example 53-1, 2-(3-((2R*,4S*)-1-((1S,2S,5R)-3-Azabicyclo[3.1.0]hexane-2-carbonyl)-2-methylpiperidine-4-carbonyl)-2-methyl-1H-pyrrolo[2,3-c]pyridin-1-yl)-5-fluoro-N-isopropyl-N-(2,2,2-trifluoroethyl)benzamide] | > 10000 |  | 

Reference: patent US20240335431A1, “1-H-PYRROLO[2,3-c]PYRIDINE COMPOUNDS” (Acerta Pharma B.V., priority 2023, published 2024)
